The test addresses T1, Androgen Receptor (AR) (Homo sapiens, UniProt P10275).
T1 construct: endogenous in cells; host or cells: VCaP
T1 sequence (P10275 1-920): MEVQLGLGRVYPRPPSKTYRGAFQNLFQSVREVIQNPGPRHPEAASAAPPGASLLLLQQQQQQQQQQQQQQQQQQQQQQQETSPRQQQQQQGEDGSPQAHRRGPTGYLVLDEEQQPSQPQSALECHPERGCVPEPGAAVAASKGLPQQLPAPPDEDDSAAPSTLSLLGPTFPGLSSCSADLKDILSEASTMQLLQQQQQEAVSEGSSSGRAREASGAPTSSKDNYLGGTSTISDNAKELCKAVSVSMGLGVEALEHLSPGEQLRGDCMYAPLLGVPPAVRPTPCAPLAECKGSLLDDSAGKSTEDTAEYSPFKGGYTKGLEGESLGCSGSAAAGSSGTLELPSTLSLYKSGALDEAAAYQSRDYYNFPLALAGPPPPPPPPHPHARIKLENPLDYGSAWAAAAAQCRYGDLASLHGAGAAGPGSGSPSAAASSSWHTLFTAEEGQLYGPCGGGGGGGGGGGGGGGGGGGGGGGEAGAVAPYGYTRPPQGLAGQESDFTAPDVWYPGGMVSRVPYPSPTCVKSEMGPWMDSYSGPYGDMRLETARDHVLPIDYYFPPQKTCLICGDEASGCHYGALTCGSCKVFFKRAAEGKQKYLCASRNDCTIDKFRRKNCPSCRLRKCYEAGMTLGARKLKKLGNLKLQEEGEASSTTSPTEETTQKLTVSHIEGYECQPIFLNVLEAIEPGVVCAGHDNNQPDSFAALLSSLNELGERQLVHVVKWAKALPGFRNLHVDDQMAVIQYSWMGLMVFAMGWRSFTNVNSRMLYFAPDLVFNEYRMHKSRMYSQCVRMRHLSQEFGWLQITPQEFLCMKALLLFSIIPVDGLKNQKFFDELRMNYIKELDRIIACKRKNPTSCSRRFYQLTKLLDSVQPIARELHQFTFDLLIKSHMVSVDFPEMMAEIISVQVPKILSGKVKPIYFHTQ
In words: AR immunofluorescence staining, high content imager, VCaP cells. The format is cell-based. The settings on record: for DC50: AR degradation by immunofluorescence; for Dmax: maximal AR degradation. The method in brief: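 VCaP cells treated with compound, fixed in 4% PFA (8% 2× solution added directly for low-adherence lines), permeabilised with 0.1% Triton X-100 and blocked. Stained overnight at 4° C with anti-AR antibody, then FITC anti-rabbit secondary plus phalloidin and DAPI/Hoechst. Read by high-content imaging.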

Broadly, the DC50 is the concentration at which degradation of the target reaches its halfway point. By Dmax is commonly meant the largest share of the target that was removed. Read a high Dmax as a fuller loss of target.

SMILES strings stand for the structures.

Compound `Cc1cc(O[C@H]2C(C)(C)[C@H](NC(=O)c3ccc(N4CC5(C4)CN([C@H]4C[C@H](Oc6ccc(C(=O)N[C@H]7CCC(=O)NC7=O)c(F)c6)C4)CCO5)cc3)C2(C)C)cc(C)c1C#N` [Compound 63, N-[(1r,3r)-3-(4-cyano-3,5-dimethylphenoxy)-2,2,4,4-tetramethylcyclobutyl]-4-{8-[(1r,3r)-3-(4-{[(3S)-2,6-dioxopiperidin-3-yl]carbamoyl}-3-fluorophenoxy)cyclobutyl]-5-oxa-2,8-diazaspiro[3.5]nonan-2-yl}benzamide] displayed a half-maximal degradation concentration (DC50) below 1 nM and a Dmax of 50 to 70%.
Taken in the same sequence, the figures for `Cc1cc(O[C@H]2C(C)(C)[C@H](NC(=O)c3ccc(N4CCC(CN5CCOCCCCOc6cc(C(=O)NC7CCC(=O)NC7=O)ccc6O[C@H]6C[C@H]5C6)CC4)cc3)C2(C)C)cc(C)c1C#N` (some centres unmarked) [Compound 64, (1r,18r)-N-(2,6-dioxopiperidin-3-yl)-17-{[1-(4-{[(1r,3r)-3-(4-cyano-3,5-dimethylphenoxy)-2,2,4,4-tetramethylcyclobutyl]carbamoyl}phenyl)piperidin-4-yl]methyl}-2,9,14-trioxa-17-azatricyclo[16.1.1.0^3,8]icosa-3(8),4,6-triene-6-carboxamide] were below 1 nM and 50 to 70%.
In the same order, the values of `Cc1cc(O[C@H]2C(C)(C)[C@H](NC(=O)c3ccc(N4CCO[C@@H](CN(C(C)C)[C@H]5C[C@H](Oc6ccc(C(=O)N[C@H]7CCC(=O)NC7=O)c(F)c6)C5)C4)cc3)C2(C)C)cc(C)c1C#N` [Compound 65, 4-[(2S)-2-{[(propan-2-yl)[(1r,3r)-3-(4-{[(3S)-2,6-2,2,4,4-dioxopiperidin-3-yl]carbamoyl}-3-fluorophenoxy)cyclobutyl]amino]methyl}morpholin-4-yl]-N-[(1r,3r)-3-(4-cyano-3,5-dimethylphenoxy)-2,2,4,4-tetramethylcyclobutyl]benzamide] are below 1 nM and 50 to 70%.
`COc1cc(C(=O)NC2CCC(=O)NC2=O)ccc1O[C@H]1C[C@H](N(CC2CCN(c3ccc(C(=O)N[C@H]4C(C)(C)[C@H](Oc5cc(C)c(C#N)c(C)c5)C4(C)C)cc3)CC2)C(C)C)C1` (some centres unmarked) [Compound 66, N-(2,6-dioxopiperidin-3-yl)-3-methoxy-4-[(1r,3r)-3-[(propan-2-yl)({[1-(4-{[(1r,3r)-3-(4-cyano-3,5-dimethylphenoxy)-2,2,4,4-tetramethylcyclobutyl]carbamoyl}phenyl)piperidin-4-yl]methyl})amino]cyclobutoxy]benzamide] had a DC50 below 1 nM and a Dmax of 50 to 70%.
Taken in the same sequence, the figures for `COCCN(C[C@H]1CN(c2ccc(C(=O)N[C@H]3C(C)(C)[C@H](Oc4cc(C)c(C#N)c(C)c4)C3(C)C)cc2)CCO1)[C@H]1C[C@H](Oc2ccc(C(=O)N[C@H]3CCC(=O)NC3=O)c(F)c2)C1` [Compound 67, 4-[(2S)-2-{[(2-methoxyethyl)[(1r,3r)-3-(4-{[(3S)-2,6-dioxopiperidin-3-yl]carbamoyl}-3-fluorophenoxy)cyclobutyl]amino]methyl}morpholin-4-yl]-N-[(1r,3r)-3-(4-cyano-3,5-dimethylphenoxy)-2,2,4,4-tetramethylcyclobutyl]benzamide] were 1 to 10 nM and at least 70%.
In the same order, the values of `Cc1cc(O[C@H]2C(C)(C)[C@H](NC(=O)c3ccc(N4CCC5(CC4)CN([C@H]4C[C@H](Oc6ccc(C(=O)NC7CCC(=O)NC7=O)cc6)C4)CCO5)cc3)C2(C)C)cc(C)c1C#N` (some centres unmarked) [Compound 68, N-[(1r,3r)-3-(4-cyano-3,5-dimethylphenoxy)-2,2,4,4-tetramethylcyclobutyl]-4-{4-[(1r,3r)-3-{4-[(2,6-dioxopiperidin-3-yl)carbamoyl]phenoxy}cyclobutyl]-1-oxa-4,9-diazaspiro[5.5]undecan-9-yl}benzamide] are 1 to 10 nM and 50 to 70%.
In turn, `COc1cc(O[C@H]2C(C)(C)[C@H](NC(=O)c3ccc(N4CCC(CN5CCN(c6ccc(F)c(C(=O)N[C@H]7CCC(=O)NC7=O)c6)CC5)CC4)cc3)C2(C)C)ccc1C#N` [Compound 69, N-[(3S)-2,6-dioxopiperidin-3-yl]-2-fluoro-5-(4-{[1-(4-{[(1r,3r)-3-(4-cyano-3-methoxyphenoxy)-2,2,4,4-tetramethylcyclobutyl]carbamoyl}phenyl)piperidin-4-yl]methyl}piperazin-1-yl)benzamide] showed a DC50 of 10 to 100 nM and a Dmax of at least 70%.
In the same order, the values of `Cc1cc(O[C@H]2C(C)(C)[C@H](NC(=O)c3ccc(N4CC(CN5CC(c6ccc(C(=O)N[C@H]7CCC(=O)NC7=O)c(F)c6)C5)C4)cc3)C2(C)C)cc(C)c1C#N` [Compound 71, N-[(3S)-2,6-dioxopiperidin-3-yl]-2-fluoro-4-(1-{[1-(4-{[(1r,3r)-3-(4-cyano-3,5-dimethylphenoxy)-2,2,4,4-tetramethylcyclobutyl]carbamoyl}phenyl)azetidin-3-yl]methyl}azetidin-3-yl)benzamide] are below 1 nM and 50 to 70%.
`Cc1cc(O[C@H]2C(C)(C)[C@H](NC(=O)c3ccc(N4CCC(CN5CCOCCCCCOc6ccc(C(=O)NC7CCC(=O)NC7=O)cc6O[C@H]6C[C@H]5C6)CC4)cc3)C2(C)C)cc(C)c1C#N` (some centres unmarked) [Compound 72, (1r,19r)-N-(2,6-dioxopiperidin-3-yl)-18-{[1-(4-{[(1r,3r)-3-(4-cyano-3,5-dimethylphenoxy)-2,2,4,4-tetramethylcyclobutyl]carbamoyl}phenyl)piperidin-4-yl]methyl}-2,9,15-trioxa-18-azatricyclo[17.1.1.0^3,8]henicosa-3(8),4,6-triene-5-carboxamide] registered a DC50 of 1 to 10 nM and a Dmax below 50%.
With `Cc1cc(O[C@H]2C(C)(C)[C@H](NC(=O)c3ccc(N4CCC(O[C@H]5C[C@H](Oc6ccc(C(=O)N[C@H]7CCC(=O)NC7=O)c(F)c6)C5)CC4)cc3)C2(C)C)cc(C)c1C#N` [Compound 73, N-[(1r,3r)-3-(4-cyano-3,5-dimethylphenoxy)-2,2,4,4-tetramethylcyclobutyl]-4-{4-[(1r,3r)-3-(4-{[(3S)-2,6-dioxopiperidin-3-yl]carbamoyl}-3-fluorophenoxy)cyclobutoxy]piperidin-1-yl}benzamide], the DC50 lay within 1 to 10 nM and the Dmax is below 50%.
Taken in the same sequence, the figures for `Cc1cc(O[C@H]2C(C)(C)[C@H](NC(=O)c3ccc(N4CCC(CN5CCOCCCCOc6ccc(C(=O)NC7CCC(=O)NC7=O)cc6O[C@H]6C[C@H]5C6)CC4)cc3)C2(C)C)cc(C)c1C#N` (some centres unmarked) [Compound 74, (1r,18r)-N-(2,6-dioxopiperidin-3-yl)-17-{[1-(4-{[(1r,3r)-3-(4-cyano-3,5-dimethylphenoxy)-2,2,4,4-tetramethylcyclobutyl]carbamoyl}phenyl)piperidin-4-yl]methyl}-2,9,14-trioxa-17-azatricyclo[16.1.1.0^3,8]icosa-3(8),4,6-triene-5-carboxamide] were below 1 nM and below 50%.
On to `Cc1cc(O[C@H]2C(C)(C)[C@H](NC(=O)c3ccc(N4CCO[C@@H](CN5CCN(c6ccc(C(=O)N[C@@H]7CCC(=O)NC7=O)c(F)c6)CC5)C4)cc3)C2(C)C)cc(C)c1C#N` [Compound 75, N-[(3R)-2,6-dioxopiperidin-3-yl]-2-fluoro-4-(4-{[(2S)-4-(4-{[(1r,3r)-3-(4-cyano-3,5-dimethylphenoxy)-2,2,4,4-tetramethylcyclobutyl]carbamoyl}phenyl)morpholin-2-yl]methyl}piperazin-1-yl)benzamide], for which the 50% degradation concentration (DC50) lay within 1 to 10 nM and the Dmax is below 50%.
Taken in the same sequence, the figures for `COc1cc(O[C@H]2C[C@H](N3CCOC4(CCN(c5ccc(C(=O)N[C@H]6C(C)(C)[C@H](Oc7cc(C)c(C#N)c(C)c7)C6(C)C)cc5)CC4)C3)C2)cc(C(=O)NC2CCC(=O)NC2=O)c1` (some centres unmarked) [Compound 76, N-(2,6-dioxopiperidin-3-yl)-3-methoxy-5-[(1r,3r)-3-[9-(4-{[(1r,3r)-3-(4-cyano-3,5-dimethylphenoxy)-2,2,4,4-tetramethylcyclobutyl]carbamoyl}phenyl)-1-oxa-4,9-diazaspiro[5.5]undecan-4-yl]cyclobutoxy]benzamide] were 1 to 10 nM and below 50%.

Values taken from US12427144B2, “Compounds and methods for the targeted degradation of androgen receptor” (Arvinas Operations, Inc., priority 2019, dated 2025).
